The text below walks through data of patent US10196389B2, “One class of pyrazolone compounds and use thereof” (SHANGHAI INSTITUTE OF MATERIA MEDICA, CHINESE ACADEMY OF …, priority 2014, dated 2019).

This test deals with T1, human AMPK (α2β1γ1) (Homo sapiens, UniProt P54619+P54646+Q9Y478).
T1 construct: made in house; host or cells: E. coli
Description: AMPK (α2β1γ1) activation at molecular level, HTRF KinEASE-STK S1 kinase assay. In kind it is biochemical. The note with it: activation of human AMPK (α2β1γ1), 4 μM ATP, 45 min at 30° C. Here is the method:
1. Purpose of the experiment: To screen small molecule compounds that can activate AMPK (α2β1γ1).
2. Principle of the experiment: The peptide as substrate contains sites which can be AMPK phosphorylated. One terminal of the peptide is linked with biotin in the reaction system (containing 2 mM MgCl2, 400 μM DTT, 160 nM substrate peptide, 4 μM ATP and 1.6 nM AMPK). In the biotinylated terminal, biotin can link with streptavidin-XL665 (acceptor) so as to complete the labeling. After 45 minute of phosphorylation reaction, the phosphorylated substrate (i.e., product) can bind to an antibody (labeled Donor) which recognizes the phosphorylating site, and the biotin on the other terminal can linked to streptavidin-XL665 (acceptor) so that the resulting FRET signal can be detected with PE Evision. The final AMPK activity is expressed as a ratio of the 665 nm wavelength reading to the 615 nm wavelength reading (665 nm/615 nm).
3. Detection reagent: The human AMPK (α2β1γ1) protein was obtained by expression using an E. coli expression system and purification. HTRF KinEASE-STK S1 kit (purchased from Cisbio's); ATP (purchased from Sigma).
1) 200 nM AMPK (α2β1γ1) protein was incubated with 200 nM CaMKKβ at 30° C. for 4 hours in water bath to completely phosphorylate AMPK.
2) The enzyme reaction system (2 mM MgCl2, […], 160 nM substrate peptide, 4 µM ATP, and 1.6 nM AMPK) was prepared by using a white shallow plate purchased from PE. The reaction was reacted at 30° C. for 45 minutes. Phosphorylated recognizing peptides of the antibody and the XL665 Detection buffer were added and the mixture was incubated at room temperature for 3 hours before the signals were detected.

T1 sequence (P54646 whole entry): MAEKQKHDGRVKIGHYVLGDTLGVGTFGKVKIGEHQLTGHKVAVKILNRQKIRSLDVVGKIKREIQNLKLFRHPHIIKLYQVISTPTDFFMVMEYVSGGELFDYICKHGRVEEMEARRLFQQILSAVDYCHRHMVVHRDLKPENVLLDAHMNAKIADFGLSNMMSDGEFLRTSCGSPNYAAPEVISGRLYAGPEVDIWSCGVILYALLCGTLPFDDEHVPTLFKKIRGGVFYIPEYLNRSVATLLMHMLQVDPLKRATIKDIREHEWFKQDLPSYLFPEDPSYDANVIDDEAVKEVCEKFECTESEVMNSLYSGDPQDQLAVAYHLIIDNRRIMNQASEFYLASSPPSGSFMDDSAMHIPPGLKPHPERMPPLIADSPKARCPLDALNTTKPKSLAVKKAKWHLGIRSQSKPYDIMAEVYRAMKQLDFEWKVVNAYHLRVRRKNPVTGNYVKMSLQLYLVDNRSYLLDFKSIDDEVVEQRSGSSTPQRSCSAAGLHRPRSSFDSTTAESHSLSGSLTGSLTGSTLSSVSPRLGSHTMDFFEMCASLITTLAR
T1 sequence (Q9Y478 whole entry): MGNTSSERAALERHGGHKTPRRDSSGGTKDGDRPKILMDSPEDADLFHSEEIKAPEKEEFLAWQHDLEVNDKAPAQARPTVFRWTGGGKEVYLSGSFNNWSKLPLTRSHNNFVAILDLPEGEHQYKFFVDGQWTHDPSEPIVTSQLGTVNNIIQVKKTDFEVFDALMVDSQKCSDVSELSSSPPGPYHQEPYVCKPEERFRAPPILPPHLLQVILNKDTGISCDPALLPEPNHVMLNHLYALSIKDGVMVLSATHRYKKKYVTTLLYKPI
T1 sequence (P54619 whole entry): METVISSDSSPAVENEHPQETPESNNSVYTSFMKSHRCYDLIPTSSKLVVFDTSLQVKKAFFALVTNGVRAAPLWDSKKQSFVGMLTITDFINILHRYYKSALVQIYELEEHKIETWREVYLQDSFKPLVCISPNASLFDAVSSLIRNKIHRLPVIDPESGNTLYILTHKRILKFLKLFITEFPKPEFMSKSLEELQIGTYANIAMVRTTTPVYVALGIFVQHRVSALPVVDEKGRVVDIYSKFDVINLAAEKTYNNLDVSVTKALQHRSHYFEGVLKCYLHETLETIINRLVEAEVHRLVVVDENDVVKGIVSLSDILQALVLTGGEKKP

For orientation: EC50 means the concentration needed to bring the measured effect to its halfway point. Read a high EC50 as a less potent agent. With `Nc1ncnc2c1ncn2[C@@H]1O[C@H](COP(=O)(O)O)[C@@H](O)[C@H]1O` [AMP, reference compound], the “Activation ratio (Fold)” value stood at 2.6 Fold and the EC50 worked out at 0.3 µM. With `COC(=O)c1ccc(CN2C=C3C(=O)N(c4ccc(F)c(C(F)(F)F)c4)N=C3CC2)cc1` [ZM-2, Methyl 4-((2-(4-fluoro-3-(trifluoromethyl)phenyl)-3-oxo-6,7-dihydro-2H-pyrazolo[4,3-c]pyridin-5(3H)-yl)methyl)benzoic acid], the EC50 worked out at 5.8 µM. On to `COC(=O)c1ccc(CN2CCC3=NN(c4ccc(F)c(C(F)(F)F)c4)C(=O)C3C2)cc1` (stereo not drawn) [ZM-3, Methyl 4-((2-(4-fluoro-3-(trifluoromethyl)phenyl)-3-oxo-3a,4,6,7-tetrahydro-2H-pyrazolo[4,3-c]pyridin-5(3H)-yl)methyl)benzoic acid], for which the concentration for a half-maximal effect (EC50) was determined as 9.8 µM.

With `COC(=O)c1cccc(CN2CCC3=NN(c4ccc(F)c(C(F)(F)F)c4)C(=O)C3C2)c1` (stereo not drawn) [ZM-4], the “Activation ratio (Fold)” value is 3.2 Fold and the EC50 amounted to 8.4 µM. On the same counts, the results for `COc1ccc(CNC(=O)c2ccc(CN3CCc4c(c(=O)n(-c5ccc(F)c(C(F)(F)F)c5)n4C)C3)cc2)cc1OC` [ZM-5] are 3.6 Fold and 3.3 µM.

Regarding `COc1ccc(CN(C)C(=O)c2ccc(CN3C=C4C(=O)N(c5ccc(F)c(C(F)(F)F)c5)N=C4CC3)cc2)cc1OC` [ZM-6], the “Activation ratio (Fold)” value amounted to 3.0 Fold and the midpoint of the response, the EC50, lay at 1.1 µM. On the same counts, the results for `COc1ccc(CNC(=O)c2cccc(CN3C=C4C(=O)N(c5ccc(F)c(C(F)(F)F)c5)N=C4CC3)c2)cc1OC` [ZM-7] are 2.7 Fold and 4.6 µM.

For the compound `O=C(NCc1ccccc1)c1ccc(CN2C=C3C(=O)N(c4ccc(F)c(C(F)(F)F)c4)N=C3CC2)cc1` [ZM-8], the “Activation ratio (Fold)” value came out at 3.0 Fold and the EC50 was 8.6 µM. Regarding `COc1cccc(CNC(=O)c2ccc(CN3C=C4C(=O)N(c5ccc(F)c(C(F)(F)F)c5)N=C4CC3)cc2)c1` [ZM-9], the “Activation ratio (Fold)” value was found to be 2.8 Fold and the EC50 came out at 5.3 µM. On the same counts, the results for `CCNC(=O)c1ccc(CN2C=C3C(=O)N(c4ccc(F)c(C(F)(F)F)c4)N=C3CC2)cc1` [ZM-10] are 2.7 Fold and 10 µM. For the compound `COc1cc(CNC(=O)c2ccc(CN3C=C4C(=O)N(c5ccc(F)c(C(F)(F)F)c5)N=C4CC3)cc2)cc(OC)c1OC` [ZM-11], the “Activation ratio (Fold)” value stood at 3.5 Fold and the EC50 is 7.5 µM. On the same counts, the results for `O=C(NCc1ccc2c(c1)OCO2)c1ccc(CN2C=C3C(=O)N(c4ccc(F)c(C(F)(F)F)c4)N=C3CC2)cc1` [ZM-12] are 3.0 Fold and 5 µM. On the same counts, the results for `O=C(NCc1cccc2c1OCO2)c1ccc(CN2C=C3C(=O)N(c4ccc(F)c(C(F)(F)F)c4)N=C3CC2)cc1` [ZM-13] are 2.5 Fold and 3.3 µM.

Consider `C[C@@H](NC(=O)c1ccc(CN2C=C3C(=O)N(c4ccc(F)c(C(F)(F)F)c4)N=C3CC2)cc1)c1ccccc1` [ZM-14], for which the “Activation ratio (Fold)” value is on record as 2.5 Fold and a half-maximal response (EC50) required 9.7 µM. For `O=C(NCC1CCCCC1)c1ccc(CN2C=C3C(=O)N(c4ccc(F)c(C(F)(F)F)c4)N=C3CC2)cc1` [ZM-15], the “Activation ratio (Fold)” value amounted to 2.2 Fold and it took 5.8 µM to reach a half-maximal effect (EC50). On the same counts, the results for `COc1ccc(CNC(=O)c2ccc(CN3C=C4C(=O)N(c5cccc(C(F)(F)F)c5)N=C4CC3)cc2)cc1OC` [ZM-16] are 3.2 Fold and 5.6 µM. On the same counts, the results for `COc1ccc(CNC(=O)c2ccc(CN3C=C4C(=O)N(c5ccc(S(N)(=O)=O)cc5)N=C4CC3)cc2)cc1OC` [ZM-17] are 2.1 Fold and 9.5 µM.

As for `COc1ccc(CNC(=O)c2ccc(CN3C=C4C(=O)N(c5nc6ccccc6s5)N=C4CC3)cc2)cc1OC` [ZM-18], the “Activation ratio (Fold)” value was 2.8 Fold and the midpoint of the response, the EC50, lay at 6.3 µM.

As to `COc1ccc(CNC(=O)c2ccc(CN3C=C4C(=O)N(c5ccc(F)c(C(F)(F)F)c5)N=C4CC3)c(C)c2)cc1OC` [ZM-19], the “Activation ratio (Fold)” value is 2.6 Fold and the EC50 is 5.6 µM. For the compound `COc1cc(F)c(CNC(=O)c2ccc(CN3C=C4C(=O)N(c5ccc(F)c(C(F)(F)F)c5)N=C4CC3)cc2)cc1OC` [ZM-20], the “Activation ratio (Fold)” value stood at 2.8 Fold and the EC50 was determined as 4.4 µM. On the same counts, the results for `COc1ccc(C(C)(C)NC(=O)c2ccc(CN3C=C4C(=O)N(c5ccc(F)c(C(F)(F)F)c5)N=C4CC3)cc2)cc1OC` [ZM-21] are 2.2 Fold and 4 µM. For `CCOc1cc(CNC(=O)c2ccc(CN3C=C4C(=O)N(c5ccc(F)c(C(F)(F)F)c5)N=C4CC3)cc2)ccc1OC` [ZM-22], the “Activation ratio (Fold)” value is 2.9 Fold and the response was half-maximal at 6.7 µM (EC50). On the same counts, the results for `CCOc1ccc(CNC(=O)c2ccc(CN3C=C4C(=O)N(c5ccc(F)c(C(F)(F)F)c5)N=C4CC3)cc2)cc1OC` [ZM-23] are 3.0 Fold and 5.4 µM. On the same counts, the results for `CCOc1ccc(CNC(=O)c2ccc(CN3CCc4c(c(=O)n(-c5ccc(F)c(C(F)(F)F)c5)n4C)C3)cc2)cc1OC` [ZM-24] are 2.8 Fold and 2.5 µM. In the case of `COc1cc(CNC(=O)c2ccc(CN3CCc4c(c(=O)n(-c5ccc(F)c(C(F)(F)F)c5)n4C)C3)cc2)ccc1OC(C)C` [ZM-25], the “Activation ratio (Fold)” value is reported as 3.1 Fold and a half-maximal effect (EC50) was put at 2.5 µM. On the same counts, the results for `CCOc1cc(CNC(=O)c2ccc(CN3CCc4c(c(=O)n(-c5ccc(F)c(C(F)(F)F)c5)n4C)C3)cc2)ccc1OC` [ZM-26] are 2.3 Fold and 3 µM. On the same counts, the results for `COc1cc(CNC(=O)c2ccc(CN3C=C4C(=O)N(c5ccc(F)c(C(F)(F)F)c5)N=C4CC3)cc2)ccc1OC(F)F` [ZM-27] are 2.3 Fold and 5 µM.

With `COc1ccc(C2(NC(=O)c3ccc(CN4C=C5C(=O)N(c6ccc(F)c(C(F)(F)F)c6)N=C5CC4)cc3)CC2)cc1OC` [ZM-28], the “Activation ratio (Fold)” value worked out at 2.6 Fold and the EC50 was 3.2 µM.

Regarding `COc1cc(CNC(=O)c2ccc(CN3C=C4C(=O)N(c5ccc(F)c(C(F)(F)F)c5)N=C4CC3)cc2)ccc1OC(C)C` [ZM-29], the “Activation ratio (Fold)” value is recorded as 2.9 Fold and the EC50 was determined as 9.7 µM. On the same counts, the results for `COc1cc(CNC(=O)c2ccc(CN3C=C4C(=O)N(c5ccc(F)c(C(F)(F)F)c5)N=C4CC3)cc2)ccc1O` [ZM-30] are 2.7 Fold and 8.6 µM. Take `O=C(NCc1ccc(OC(F)F)c(OC(F)F)c1)c1ccc(CN2C=C3C(=O)N(c4ccc(F)c(C(F)(F)F)c4)N=C3CC2)cc1` [ZM-31]: the “Activation ratio (Fold)” value came out at 3.1 Fold and the EC50 turned out to be 5.4 µM.

As for `COc1ccc(CNC(=O)c2ccc(CN3C=C4C(=O)N(c5ccc(F)c(C(F)(F)F)c5)N=C4CC3)cc2)cc1OC(F)F` [ZM-32], the “Activation ratio (Fold)” value was 2.4 Fold and the response was half-maximal at 4.1 µM (EC50). On the same counts, the results for `COc1ccc(CNC(=O)c2ccc(CN3CCC4=NN(c5ccc(F)c(C(F)(F)F)c5)C(=O)C4(C)C3)cc2)cc1OC` (stereo not drawn) [ZM-33] are 2.7 Fold and 7.8 µM. On the same counts, the results for `[2H]C([2H])([2H])Oc1ccc(CNC(=O)c2ccc(CN3C=C4C(=O)N(c5ccc(F)c(C(F)(F)F)c5)N=C4CC3)cc2)cc1OC` [ZM-34] are 2.1 Fold and 6.3 µM.
